Test results taken from PubChem BioAssay AID1918995 (Molecular Pharmacology Branch, DTP, NCI, 2023).
Several values for one entry are separate records, joined by “and”; a condition that tells them apart may be missing. Identical values can stand only once.

System: 324938-238-R-J1-PDC complex spheroid growth, % test/control
Test: Anticancer human tumor 324938-238-R-J1-PDC patient-derived bladder carcinoma cell line growth inhibition [AhR]
Settings: for IC50: curve of first compound; for viability, T/C: stronger effect = lower value; active means viability on the fitted dose curve at most 10% of control; inactive means the rest
Outline: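 Complex tumor spheroids co-cultured with HUVEC and human MSC stroma; AhR antagonists tested in combination with standard-of-care and investigational agents. Top concentration at or near clinical Cmax (else 10 microM), half-log dilutions; growth expressed as percent test/control.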
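Further: spheroids exposed to agents for seven days before viability read.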

O=C(C=Cn1cnc(-c2cc(C(F)(F)F)cc(C(F)(F)F)c2)n1)NNc1cnccn1 + Cc1cncc(-c2nc(NCCc3c[nH]c4ccccc34)c3ncn(C(C)C)c3n2)c1
> 3000 nM: IC50 (second compound 0.1 µM)
< 9.49 nM: IC50 (second compound 10 µM)
1100 nM: IC50 (second compound 1 µM)
639 nM: IC50 (second compound 0.316 µM)
740 nM: IC50 (second compound 3.16 µM)
inactive: viability, T/C (second compound 0.1 µM, first compound 0.00949 µM) 86.6% | viability, T/C (second compound 0.1 µM, first compound 0.03 µM) 94.1% | viability, T/C (second compound 0.1 µM, first compound 0.0949 µM) 66.5% | viability, T/C (second compound 0.1 µM, first compound 0.3 µM) 56.2% | viability, T/C (second compound 0.1 µM, first compound 0.949 µM) 53.2% | viability, T/C (second compound 0.1 µM, first compound 3 µM) 44.3% | viability, T/C (second compound 0.316 µM, first compound 0.00949 µM) 95.5% | viability, T/C (second compound 0.316 µM, first compound 0.03 µM) 90.8% | viability, T/C (second compound 0.316 µM, first compound 0.0949 µM) 110% | viability, T/C (second compound 0.316 µM, first compound 0.3 µM) 64.9% | viability, T/C (second compound 0.316 µM, first compound 0.949 µM) 47.1% | viability, T/C (second compound 0.316 µM, first compound 3 µM) 37.3% | viability, T/C (second compound 1 µM, first compound 0.00949 µM) 112% | viability, T/C (second compound 1 µM, first compound 0.03 µM) 94.7% | viability, T/C (second compound 1 µM, first compound 0.0949 µM) 80.7% | viability, T/C (second compound 1 µM, first compound 0.3 µM) 79.7% | viability, T/C (second compound 1 µM, first compound 0.949 µM) 50.4% | viability, T/C (second compound 1 µM, first compound 3 µM) 31.4% | viability, T/C (second compound 3.16 µM, first compound 0.00949 µM) 120% | viability, T/C (second compound 3.16 µM, first compound 0.03 µM) 103% | viability, T/C (second compound 3.16 µM, first compound 0.0949 µM) 93.1% | viability, T/C (second compound 3.16 µM, first compound 0.3 µM) 60.6% | viability, T/C (second compound 3.16 µM, first compound 0.949 µM) 42.3% | viability, T/C (second compound 3.16 µM, first compound 3 µM) 47.6% | viability, T/C (second compound 10 µM, first compound 0.00949 µM) 16.9% | viability, T/C (second compound 10 µM, first compound 0.03 µM) 7.37% | viability, T/C (second compound 10 µM, first compound 0.0949 µM) 15% | viability, T/C (second compound 10 µM, first compound 0.3 µM) 20.5% | viability, T/C (second compound 10 µM, first compound 0.949 µM) 22.1% | viability, T/C (second compound 10 µM, first compound 3 µM) 25.8%

COc1ccc([C@@H](O)c2cc(-c3ncnc4cc(N5CCOCC5)ccc34)c(F)cc2Cl)nn1 + Cc1cncc(-c2nc(NCCc3c[nH]c4ccccc34)c3ncn(C(C)C)c3n2)c1
> 10000 nM: IC50 (second compound 1 µM) | IC50 (second compound 3.16 µM)
8950 nM: IC50 (second compound 0.1 µM)
7370 nM: IC50 (second compound 0.316 µM)
inactive: viability, T/C (second compound 0.1 µM, first compound 0.0316 µM) 152% | viability, T/C (second compound 0.1 µM, first compound 0.1 µM) 91.7% | viability, T/C (second compound 0.1 µM, first compound 0.316 µM) 96.2% | viability, T/C (second compound 0.1 µM, first compound 1 µM) 89.5% | viability, T/C (second compound 0.1 µM, first compound 3.16 µM) 63.5% | viability, T/C (second compound 0.1 µM, first compound 10 µM) 51.4% | viability, T/C (second compound 0.316 µM, first compound 0.0316 µM) 116% | viability, T/C (second compound 0.316 µM, first compound 0.1 µM) 125% | viability, T/C (second compound 0.316 µM, first compound 0.316 µM) 81.6% | viability, T/C (second compound 0.316 µM, first compound 1 µM) 94.9% | viability, T/C (second compound 0.316 µM, first compound 3.16 µM) 81% | viability, T/C (second compound 0.316 µM, first compound 10 µM) 38.1% | viability, T/C (second compound 1 µM, first compound 0.0316 µM) 137% | viability, T/C (second compound 1 µM, first compound 0.1 µM) 112% | viability, T/C (second compound 1 µM, first compound 0.316 µM) 119% | viability, T/C (second compound 1 µM, first compound 1 µM) 86.1% | viability, T/C (second compound 1 µM, first compound 3.16 µM) 79.2% | viability, T/C (second compound 1 µM, first compound 10 µM) 64.2% | viability, T/C (second compound 3.16 µM, first compound 0.0316 µM) 108% | viability, T/C (second compound 3.16 µM, first compound 0.1 µM) 80.2% | viability, T/C (second compound 3.16 µM, first compound 0.316 µM) 86.3% | viability, T/C (second compound 3.16 µM, first compound 1 µM) 69.8% | viability, T/C (second compound 3.16 µM, first compound 3.16 µM) 43.4% | viability, T/C (second compound 3.16 µM, first compound 10 µM) 58.5%
active: viability, T/C (second compound 10 µM, first compound 0.0316 µM) 3.67% | viability, T/C (second compound 10 µM, first compound 0.1 µM) 4.08% | viability, T/C (second compound 10 µM, first compound 0.316 µM) 3.62% | viability, T/C (second compound 10 µM, first compound 1 µM) 2.73% | viability, T/C (second compound 10 µM, first compound 3.16 µM) 3.64% | viability, T/C (second compound 10 µM, first compound 10 µM) 3.08%
< 31.6 nM: IC50 (second compound 10 µM)

CCc1c2c(nc3ccc(O)cc13)-c1cc3c(c(=O)n1C2)COC(=O)[C@]3(O)CC
inactive: viability, T/C (compound 0.000949 µM) 80.8% and 57.3% and 38.8% | viability, T/C (compound 0.003 µM) 71% and 52.4% and 28.9% | viability, T/C (compound 0.00949 µM) 70.2% and 18.2% and 19% | viability, T/C (compound 0.03 µM) 90.4% and 15.3% and 17.9% | viability, T/C (compound 0.0949 µM) 78.3% and 16.9% and 17% | viability, T/C (compound 0.3 µM) 69.4% and 14.9% and 15.4%

COc1cc(Nc2ncc3c(n2)-c2ccc(Cl)cc2C(c2c(F)cccc2OC)=NC3)ccc1C(=O)O
inactive: viability, T/C (compound 0.0316 µM) 101% and 74% and 71.8% | viability, T/C (compound 0.1 µM) 111% and 56% and 46% | viability, T/C (compound 0.316 µM) 68.3% and 32.7% and 27.7% | viability, T/C (compound 1 µM) 92% and 36% and 28.2% | viability, T/C (compound 3.16 µM) 92.5% and 38.2% and 27.3% | viability, T/C (compound 10 µM) 75.8% and 39.1% and 32.8%
